Measured values taken from article PMC8134483 (Scientific Reports, 2021).
“Also recorded” adds a separate entry of the source. Like-named read-outs stand apart in the source and are kept apart here.

Legend:
hCB1R [1] = target: T1, hCB1R (Homo sapiens, UniProt P21554); experiment: biochemical; format: binding; conditions: for CB1R versus CB2R selectivity, receptor affinity: CB1R vs CB2R [^3H]CP55,940 binding
T1 construct: expressed in transfected cells; host or cells: CHO-K1

hCB1R [2] = target: T1, hCB1R; experiment: cell-based; format: cell-based; conditions: for EC50: CHO hCB1R, 10 µM FSK, 90 min, value with 95% CI, read-out: CB1R cAMP Inhibition EC50; for Emax: read-out: CB1R cAMP Inhibition Emax; for CB1R-dependent inhibition of FSK-stimulated cAMP, activity in words: relative to CP55940
hCB1R [3] = target: T1, hCB1R; experiment: cell-based; format: cell-based; conditions: for CB1R versus CB2R selectivity, βarrestin2 recruitment: CB1R vs CB2R; for EC50: CHO hCB1R, 90 min, value with 95% CI, read-out: CB1R βarrestin2 recruitment EC50; for Emax: read-out: CB1R βarrestin2 recruitment Emax; for βarrestin2 recruitment to CB1R, activity in words: relative to CP55940
hCB2R [4] = target: T2, hCB2R (Homo sapiens, UniProt P34972); experiment: [^3H]CP55,940 competition (radioligand displacement) binding to CB2R; conditions: for CB2R [^3H]CP55,940 Emin: bottom of the concentration–response curve, mean ± SEM
T2 construct: host or cells: CHO-K1 (PathHunter)
T2 sequence (P34972 whole entry): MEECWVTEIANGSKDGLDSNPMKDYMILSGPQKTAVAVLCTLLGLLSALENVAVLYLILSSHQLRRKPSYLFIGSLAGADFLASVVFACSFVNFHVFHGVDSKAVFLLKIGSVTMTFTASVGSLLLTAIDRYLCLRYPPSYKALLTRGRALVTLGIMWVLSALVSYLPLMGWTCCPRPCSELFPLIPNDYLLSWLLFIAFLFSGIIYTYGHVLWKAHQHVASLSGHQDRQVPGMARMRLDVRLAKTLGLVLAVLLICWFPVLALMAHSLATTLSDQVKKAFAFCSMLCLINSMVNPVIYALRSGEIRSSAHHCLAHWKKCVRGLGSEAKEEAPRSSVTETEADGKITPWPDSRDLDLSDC

hCB2R [5] = target: T2, hCB2R; experiment: HitHunter inhibition of FSK-stimulated cAMP, CB2R; format: cell-based
hCB2R [6] = target: T2, hCB2R; experiment: PathHunter βarrestin2 recruitment, CB2R; format: cell-based; conditions: for βarrestin2 recruitment to CB2R, activity in words: relative to CP55,940
hCB2R [7] = target: T2, hCB2R; experiment: CB2R bias analysis (operational model, cAMP inhibition vs βarrestin2); format: cell-based; conditions: CP55,940 as reference agonist; >0 cAMP bias, <0 βarrestin2 bias
Protocol: Estimates of Ki, EC50, Emin, and Emax were determined using non-linear regression with variable slope (four parameters) (GraphPad, Prism, v. 8.0). […] One-way analysis of variance (ANOVA), followed by Tukey’s post-hoc test, was used for statistical analyses (p < 0.05 determined to be significant); and Bartlett’s test was used to confirm homogeneity of variance (GraphPad).

male C57Bl/6 mice = experiment: Elevated plus maze (EPM); format: in vivo; conditions: 1.0 mg/kg i.p., 30 min after treatment, 5 min trial
Protocol: Adult male C57BL/6 mice aged 6–10 weeks (mean weight 24 ± 0.5 g) were purchased from Charles River Labs (Senneville, QC). Animals were group housed (three per cage) with ad libitum access to food, water, and environmental enrichment and maintained on a 12 h light/dark cycle. Mice were randomly assigned to receive i.p. injections of vehicle (1:1:18 ethanol:emulphor:saline) or 0.1–10 mg/kg SCRA (n ≥ 4 per group). All protocols have been described previously and were in accordance with the guidelines detailed by the Canadian Council on Animal Care and approved by the Animal Research Ethics Board and the Scientific Merit Review Committee for Animal Behaviour at the University of Saskatchewan. The following steps were taken to ensure our study was in keeping with the ARRIVE guidelines: (1) power analyses were conducted to determine the minimum number of animals required for the study; (2) animals were purchased—rather than bred—to limit animal waste; and (3) all assessments of animal behaviour were made by individuals blinded to the treatment group,[57].
EPM was conducted according to methods adapted from Marks et al.. The EPM was built from a plywood base painted blue with blue corrugated plastic floor and walls. The floor of the maze was composed of perpendicular interlocking arms (110 cm long × 10 cm wide) with two arms having 45 cm walls (closed arms) and two arms having no walls and a 0.5 cm edge (open arms), all elevated 45 cm from the ground. Trials began with the mouse in the central zone facing an open arm. Trials lasted 5 min and began 30 min after SCRA treatment. An arm entry was considered to be all four limbs leaving the central zone. Arm entries and the percent time spent in open versus closed arms were recorded by an observer blinded to the treatment group. Less time in the open arms and more time in the closed arms was used as a model of anxiogenic behaviour.

[8] = bottom of the concentration–response curve, mean ± SEM

T1 sequence (P21554 whole entry): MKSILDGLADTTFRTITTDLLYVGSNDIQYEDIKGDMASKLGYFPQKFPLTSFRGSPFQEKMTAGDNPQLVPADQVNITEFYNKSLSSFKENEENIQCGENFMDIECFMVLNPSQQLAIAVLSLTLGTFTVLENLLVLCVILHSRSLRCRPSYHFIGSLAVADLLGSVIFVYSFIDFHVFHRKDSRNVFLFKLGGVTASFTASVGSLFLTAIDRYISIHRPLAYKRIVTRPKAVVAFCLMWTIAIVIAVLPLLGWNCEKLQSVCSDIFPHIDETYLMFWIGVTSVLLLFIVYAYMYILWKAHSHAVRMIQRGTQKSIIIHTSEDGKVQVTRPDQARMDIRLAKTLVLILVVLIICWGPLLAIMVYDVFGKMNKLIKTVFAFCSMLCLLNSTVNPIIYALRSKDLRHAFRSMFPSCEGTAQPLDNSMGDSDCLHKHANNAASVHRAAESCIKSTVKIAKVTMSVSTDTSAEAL

Compound	Ki (hCB1R [1]) [nM]	CB1R [^3H]CP55,940 Emin (hCB1R [1]; [8]) [%]	EC50 (hCB1R [2]) [nM]	Emax (hCB1R [2]) [%]	CB1R versus CB2R selectivity, βarrestin2 recruitment (hCB1R [3])	EC50 (hCB1R [3]) [nM]	Emax (hCB1R [3]) [%]	Affinity for CB2R compared with CP55,940, in words (hCB2R [4])	Ki (hCB2R [4]) [nM]	CB2R [^3H]CP55,940 Emin (hCB2R [4]) [%]	EC50 (hCB2R [5]) [nM]	Emax (hCB2R [5]) [%]	EC50 (hCB2R [6]) [nM]	Emax (hCB2R [6]) [%]	βarrestin2 recruitment to CB2R, activity in words (hCB2R [6])	CB2R bias between cAMP inhibition and βarrestin2 recruitment, ∆∆LogR (cAMP—βarr2), in words (hCB2R [7])	CB1R versus CB2R selectivity, receptor affinity (hCB1R [1])	CB1R versus CB2R selectivity, cAMP inhibition potency (hCB1R [2]; CB1R vs CB2R)	βarrestin2 recruitment to CB1R, activity in words (hCB1R [3])	also measured
COC(=O)[C@H](Cc1ccccc1)NC(=O)c1cn(CCCCCF)c2ccccc12 [5-fluoro MPP-PICA]	1200	59 ± 18	6.4	92 ± 6.8	minimally active at CB1R but agonists at CB2R	> 10000	170 ± 9.8	significantly less affinity	540	89 ± 6.3	12	110 ± 13	630	82 ± 1.9	not different with regard to potency relative to the reference agonist CP55,940, and produced supramaximal EMax responses	did not display a bias	–	–	–	Affinity for CB1R compared with CP55,940, in words (hCB1R [1]): significantly less affinity
N#CCCCCn1cc(C(=O)c2cccc3ccccc23)c2ccccc21 [AM 2232]	0.31	66 ± 3.6	190	100 ± 9.3	–	> 10000	68 ± 1.6	significantly less affinity	600	73 ± 6.2	1.7	86 ± 1.9	130	130 ± 19	greater potency and produced supramaximal EMax responses	significant bias toward the inhibition of cAMP	greater affinity at CB1R relative to CB2R	more potent at CB2R relative to CB1R	–	CB1R-dependent inhibition of FSK-stimulated cAMP, activity in words (hCB1R [2]): significantly lower potency relative to CP55940, but retained full (i.e., 100%) efficacy
CCCCCn1cc(C(=O)c2ccc(CCC)c3ccccc23)c2ccccc21 [JWH 182]	0.77	17 ± 2.2	24	78 ± 9.4	inactive at CB2R but an agonist at CB1R	1600	110 ± 9.2	–	6.2	21 ± 1.7	25	120 ± 11	> 10000	13 ± 1.8	inactive in βarrestin2; also recorded: Inactive at βarrestin2	obligate cAMP-biased ligands	–	–	equipotent, but produced supramaximal EMax responses	CB1R versus CB2R selectivity, cAMP inhibition efficacy (hCB1R [2]; CB1R vs CB2R): greater efficacy at CB2R than CB1R
CCCCCn1c2ccccc2c2cc(C(=O)c3cccc4ccccc34)ccc21 [EG 018]	–	68 ± 6.1	–	104 ± 18	–	–	5.2 ± 0.54	significantly greater affinity	1.9	53 ± 4.0	–	85 ± 17	–	10 ± 1.9	–	significant bias toward the inhibition of cAMP	–	–	Inactive at βarrestin2	CB1R-dependent inhibition of FSK-stimulated cAMP, activity in words (hCB1R [2]): significantly lower potency relative to CP55940, but retained full (i.e., 100%) efficacy; EC50 (hCB2R [5]; CHO hCB2R, 10 µM FSK, 90 min, value with 95% CI, read-out: CB2R cAMP Inhibition EC50): 51 nM; EC50 (hCB2R [6]; CHO hCB2R, 90 min, value with 95% CI, read-out: CB2R βarrestin2 recruitment EC50): 770 nM
CC(C)C(NC(=O)c1nn(Cc2cccc(F)c2)c2ccccc12)C(N)=O (stereo not drawn) [meta-AB-FUBINACA]	16	30 ± 2.9	5.7	91 ± 12	minimally active at CB1R but agonists at CB2R	> 10000	22 ± 6.9	significantly greater affinity	0.63	89 ± 6.3	5.4	86 ± 13	280	130 ± 3.7	not different with regard to potency relative to the reference agonist CP55,940, and produced supramaximal EMax responses	did not display a bias	–	–	Inactive at βarrestin2	–
CCCCCn1cc(C(=O)c2cccc3ccccc23)cc1-c1ccccc1 [JWH 145]	110	69 ± 7.6	0.03	82 ± 9.3	–	> 10000	27 ± 9	significantly less affinity	860	70 ± 6.1	61	86 ± 17	190	15 ± 1.7	–	significant bias toward the inhibition of cAMP	–	more potent at CB1R relative to CB2R	–	–
CCCCCCC(C)(C)c1ccc([C@@H]2C[C@H](O)CC[C@H]2CCCO)c(O)c1 [CP55,940, reference compound]	–	–	–	–	–	–	–	–	–	0.0 ± 5.6	–	–	–	–	–	–	–	–	–	CB1R [^3H]CP55,940 Emin (hCB1R [1]): 0.0 ± 5.2%; EPM time in the central quadrant (male C57Bl/6 mice): majority of their time in the central quadrant immobile; EPM total arm entries (male C57Bl/6 mice; vs vehicle): reduced total arm entries
Cc1ccc(C(=O)c2cn(CCCCCCl)c3ccccc23)c2ccccc12 [MAM2201 N-(5-chloropentyl) analog]	10	5.3 ± 3.0	2.8	98 ± 8.7	–	> 10000	17 ± 2.7	significantly less affinity	> 10000	40 ± 3.8	580	120 ± 25	> 10000	5.5 ± 1.9	inactive in βarrestin2	obligate cAMP-biased ligands	greater affinity at CB1R relative to CB2R	more potent at CB1R relative to CB2R	Inactive at βarrestin2	βarrestin2 recruitment to CB2R, activity in words (hCB2R [6]; listed as MAM-2201 N-(5-chloropentyl) analog): Inactive at βarrestin2
O=C(c1ccc(Cl)c2ccccc12)c1cn(CCCCCF)c2ccccc12 [Cl 2201]	0.09	76 ± 2.8	2.6	89 ± 3.9	–	> 10000	16 ± 1	–	26	66 ± 2.5	1	110 ± 8.4	120	17 ± 1.1	–	significant bias toward the inhibition of cAMP	greater affinity at CB1R relative to CB2R	–	Inactive at βarrestin2	–
O=C(Nc1cccc2ccccc12)c1cn(Cc2ccc(F)cc2)c2ccccc12 [FDU-NNEI]	14	41 ± 2.8	1	96 ± 8.1	–	> 10000	49 ± 8.2	–	8.8	85 ± 8.1	0.01	103 ± 7.1	1000	25 ± 1.3	–	significant bias toward the inhibition of cAMP	greater affinity at CB1R relative to CB2R	–	–	CB1R versus CB2R selectivity, [^3H]CP55,940 displaced (hCB1R [1]; CB1R vs CB2R): displaced more [^3H]CP55,940 at CB1R relative to CB2R
